From publication PMC10974284, “Discovery of Novel 4-Hydroxyquinazoline Derivatives: In Silico, In Vivo and In Vitro Studies Using Primary PARPi-Resistant Cell Lines” (Molecules, 2024)
Where two headings read alike, the source gives them in different places.

Key:
[1] = test system: HCT-15 cell lines; experiment: MTT cytotoxicity assay, HCT-15; format: cell-based, human; conditions: Homo sapiens; for IC50: read-out: IC50 HCT-15
Method: (§1) After treatment with target compounds at the different concentrations, MTT was added and the cells were incubated for another 4 h. The IC50 values of the selected compounds were evaluated by the same method. The cells were treated with compounds at different concentrations. The OD values were detected using a microplate reader at 570 nm.

[2] = test system: HCC1937 cell lines; experiment: MTT cytotoxicity assay, HCC1937; format: cell-based, human; conditions: Homo sapiens; for IC50: read-out: IC50 HCC1937
Method: as §1

[3] = molecular target: T1, PARP1 (Homo sapiens, UniProt P09874); experiment: PARP1 enzyme inhibition assay (commercial kit); format: biochemical
T1 construct: purchased Sigma-Aldrich 17-10149

[4] = HCT-15, 72 h (3-Days) drug exposure, MTT
[5] = HCC1937, 72 h (3-Days) drug exposure, MTT

T1 sequence (P09874 whole entry): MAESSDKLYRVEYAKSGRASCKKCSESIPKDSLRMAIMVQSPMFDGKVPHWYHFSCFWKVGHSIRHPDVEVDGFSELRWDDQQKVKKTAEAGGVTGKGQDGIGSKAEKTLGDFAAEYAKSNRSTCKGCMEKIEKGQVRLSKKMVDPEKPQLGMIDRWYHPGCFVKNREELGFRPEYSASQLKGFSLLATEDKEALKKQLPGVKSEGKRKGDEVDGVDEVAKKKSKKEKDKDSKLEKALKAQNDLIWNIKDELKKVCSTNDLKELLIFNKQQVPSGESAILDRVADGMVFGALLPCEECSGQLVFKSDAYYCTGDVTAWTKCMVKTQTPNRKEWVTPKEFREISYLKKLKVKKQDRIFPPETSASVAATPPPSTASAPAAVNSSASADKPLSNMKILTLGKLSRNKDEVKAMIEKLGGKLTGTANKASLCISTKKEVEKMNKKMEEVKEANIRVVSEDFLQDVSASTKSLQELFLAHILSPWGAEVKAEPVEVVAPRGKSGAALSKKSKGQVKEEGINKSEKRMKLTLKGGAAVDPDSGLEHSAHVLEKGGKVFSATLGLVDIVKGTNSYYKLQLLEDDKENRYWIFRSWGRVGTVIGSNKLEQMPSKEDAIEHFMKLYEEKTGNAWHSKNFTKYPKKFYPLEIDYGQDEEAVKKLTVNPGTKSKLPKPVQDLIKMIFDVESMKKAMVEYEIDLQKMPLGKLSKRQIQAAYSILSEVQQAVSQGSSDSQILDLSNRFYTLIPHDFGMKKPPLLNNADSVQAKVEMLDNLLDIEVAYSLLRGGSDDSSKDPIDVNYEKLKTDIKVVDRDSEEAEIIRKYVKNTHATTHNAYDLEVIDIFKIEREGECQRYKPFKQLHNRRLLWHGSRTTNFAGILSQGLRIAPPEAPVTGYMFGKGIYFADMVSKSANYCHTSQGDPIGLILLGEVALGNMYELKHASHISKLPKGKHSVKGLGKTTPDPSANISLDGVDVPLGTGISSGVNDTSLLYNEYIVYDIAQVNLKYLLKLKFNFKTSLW

Compound	IC50 [1, 4] [µM]	IC50 [2, 5] [µM]	melting point [°C]	IC50 ([1]; HCT-15, 72 h) [µM]	IC50 ([2]; HCC1937, 72 h) [µM]	further results
Cc1ccc(Cl)cc1NC(=O)N1CCN(Cc2nc3ccccc3c(=O)[nH]2)CC1C (stereo not shown) [B2, N-(5-chloro-2-methylphenyl)-2-methyl-4-((4-oxo-3,4-dihydroquinazolin-2-yl)methyl)piperazine-1-carboxamide]	6.37 ± 2.83	5.89 ± 0.5	189.5 to 190.8	–	–	–
Cc1ccc(Cl)cc1NC(=O)N1C[C@@H]2C[C@H]1CN2Cc1nc2ccccc2c(=O)[nH]1 [B3, (1S,4S)-N-(5-chloro-2-methylphenyl)-5-((4-oxo-3,4-dihydroquinazolin-2-yl)methyl)-2,5-diazabicyclo[2.2.1]heptane-2-carboxamide]	12.5 ± 1.49	16.5 ± 0.94	191.1 to 192.4	–	–	–
Cc1ccc(Cl)cc1NC(=O)N1CCCN(Cc2nc3ccccc3c(=O)[nH]2)CC1 [B4, N-(5-chloro-2-methylphenyl)-4-((4-oxo-3,4-dihydroquinazolin-2-yl)methyl)-1,4-diazepane-1-carboxamide]	5.65 ± 1.29	5.77 ± 0.99	186.6 to 187.9	–	–	–
Cc1ccc(Cl)cc1NC(=O)N1C[C@H]2CC[C@@H](C1)N2Cc1nc2ccccc2c(=O)[nH]1 [B5, (1R,5S)-N-(5-chloro-2-methylphenyl)-8-((4-oxo-3,4-dihydroquinazolin-2-yl)methyl)-3,8-diazabicyclo[3.2.1]octane-3-carboxamide]	–	–	189.5 to 191.7	11 ± 2.4	9.61 ± 1.35	–
Cc1ccc(Cl)cc1NC(=O)N1C2CCC1CN(Cc1nc3ccccc3c(=O)[nH]1)C2 [B6, N-(5-chloro-2-methylphenyl)-3-((4-oxo-3,4-dihydroquinazolin-2-yl)methyl)-3,8-diazabicyclo[3.2.1]octane-8-carboxamide]	–	–	192.3 to 193.6	7.27 ± 1.28	7.52 ± 1.37	–
Cc1ccc(Cl)cc1NC(=O)N1CCCN(Cc2nc3ccccc3c(=O)[nH]2)C1 [B7, N-(5-chloro-2-methylphenyl)-3-((4-oxo-3,4-dihydroquinazolin-2-yl)methyl)tetrahydropyrimidine-1(2H)-carboxamide]	13.7 ± 1.21	57.9 ± 3.33	197.3 to 198.7	–	–	–
Cc1ccc(Cl)cc1NC(=O)N1C2CC1CN(Cc1nc3cc(F)ccc3c(=O)[nH]1)C2 [C1, N-(5-chloro-2-methylphenyl)-3-((7-fluoro-4-oxo-3,4-dihydroquinazolin-2-yl)methyl)-3,6-diazabicyclo[3.1.1]heptane-6-carboxamide]	–	–	193.2 to 195.1	24.1 ± 2.25	9.22 ± 1.19	–
Cc1ccc(Cl)cc1NC(=O)N1C2CC1CN(Cc1nc3cc(Cl)ccc3c(=O)[nH]1)C2 [C2, N-(5-chloro-2-methylphenyl)-3-((7-chloro-4-oxo-3,4-dihydroquinazolin-2-yl)methyl)-3,6-diazabicyclo[3.1.1]heptane-6-carboxamide]	–	–	192.3 to 194.1	23 ± 1.93	32.4 ± 2.66	–
Cc1ccc2c(=O)[nH]c(CN3CC4CC(C3)N4C(=O)Nc3cc(Cl)ccc3C)nc2c1 [C3, N-(5-chloro-2-methylphenyl)-3-((7-methyl-4-oxo-3,4-dihydroquinazolin-2-yl)methyl)-3,6-diazabicyclo[3.1.1]heptane-6-carboxamide]	–	–	197.7 to 199.3	28.4 ± 2.87	30.1 ± 3.12	–
Cc1ccc(Cl)cc1NC(=O)N1C2CC1CN(Cc1nc3ccc(F)cc3c(=O)[nH]1)C2 [C4, N-(5-chloro-2-methylphenyl)-3-((6-fluoro-4-oxo-3,4-dihydroquinazolin-2-yl)methyl)-3,6-diazabicyclo[3.1.1]heptane-6-carboxamide]	–	–	192.1 to 193.5	9.84 ± 0.63	8.49 ± 0.71	–
Cc1ccc(Cl)cc1NC(=O)N1C2CC1CN(Cc1nc3cc(F)c(F)cc3c(=O)[nH]1)C2 [C5, N-(5-chloro-2-methylphenyl)-3-((6,7-difluoro-4-oxo-3,4-dihydroquinazolin-2-yl)methyl)-3,6-diazabicyclo[3.1.1]heptane-6-carboxamide]	–	–	194.4 to 195.8	29.6 ± 2.16	55 ± 4.28	–
O=C(Nc1ccc(F)cc1F)N1CCN(Cc2nc3ccccc3c(=O)[nH]2)CC1 [IN17]	33.5 ± 1.79	34.3 ± 2.68	–	–	–	IC50 [3]: 0.4713 ± 0.00318 µM; inhibition at 0.5 µM ([3]; 0.5 μM, read-out: Inhibition rate (%) PARP1): 53.1%; IC50 ([3]; as printed in the text): 0.47 ± 0.0032 µM; inhibition at 50 µM ([1]; HCT-15, 50 μM, 72 h, MTT, read-out: Inhibition rate (%) HCT-15): 63.3%; inhibition at 50 µM ([2]; HCC1937, 50 μM, 72 h, MTT, read-out: Inhibition rate (%) HCC1937): 60.6%
